The values that follow come from BindingDB's records for doi:10.1007/bf00175797 (Pharmakologisches Institut, Heidelberg, 1988).

Each structure is given as a SMILES string. pKi: −log10 of the molar value.

The assay has as its target Adenosine receptor A2a (Rattus norvegicus, UniProt P30543).

Sequence of Adenosine receptor A2a (P30543 whole entry): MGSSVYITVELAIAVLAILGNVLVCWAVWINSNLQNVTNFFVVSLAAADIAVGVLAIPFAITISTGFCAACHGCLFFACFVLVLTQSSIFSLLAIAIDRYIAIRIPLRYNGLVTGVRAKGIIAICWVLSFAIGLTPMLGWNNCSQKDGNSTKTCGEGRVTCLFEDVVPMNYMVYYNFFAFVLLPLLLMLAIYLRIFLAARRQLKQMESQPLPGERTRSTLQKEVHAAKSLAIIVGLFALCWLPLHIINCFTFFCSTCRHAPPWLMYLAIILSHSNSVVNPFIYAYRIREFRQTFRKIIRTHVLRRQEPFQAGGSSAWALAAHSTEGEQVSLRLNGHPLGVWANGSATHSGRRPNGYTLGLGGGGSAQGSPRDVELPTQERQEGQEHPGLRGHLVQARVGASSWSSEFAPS

For the molecule `OC[C@H]1O[C@@H](n2cnc3c(NC4CCCC4)ncnc32)[C@H](O)[C@@H]1O`, the pKi is 5.70.

By pKi is commonly meant the negative decadic logarithm of the Ki, by convention in mol/L. Low readings indicate a large Ki, high ones a small Ki.
